Reference: patent US20240208912A1 (Mirati Therapeutics, Inc., priority 2021, published 2024)
Read-outs that look alike come from different tables or passages of the source.

Columns and labels:
[1] = tested on: PRMT5-dependent Symmetric Di-methyl Arginine signal in HCT116 homozygous MTAP Knockout cells; assay: SYM11 In-Cell Western in HCT116 homozygous MTAP knockout cells; assay type: cell-based
Protocol: HCT116 cells were genetically engineered to knock out the function of both MTAP alleles using a CRISPR/Cas9 system and an sgRNA targeting the MTAP gene. Following Cas9/MTAP sgRNA transduction, clones were screened to confirm that each allele of the MTAP gene had been inactivated (i.e., homozygous MTAP knock out) creating an MTAP-deficient cell.
Control samples were analyzed in parallel.
Briefly, on Day 0, 2,000 HCT116 parental or HCT116 homozygous MTAP knockout cells were seeded in 96 well plates in McCoy's 5A supplemented with 10% fetal bovine serum and pen/strep and the cells were incubated overnight at 37° C. plus 5% CO2. The following day, cells were treated with DMSO vehicle control or a dose response of PRMT5 inhibitors, and incubated at 37° C. plus 5% CO^2 for four days.
After 4 days of treatment, the cells were fixed by adding 50 μl of 4% paraformaldehyde solution to each well and the cells were incubated for 20 min at room temperature. The paraformaldehyde solution was removed, 150 μl of ice-cold methanol was added and the plate was placed −20° C. for 10 minutes. The methanol was removed, 150 μl of Odyssey Blocking buffer+0.05% Tween20 was added and the plate was incubated at room temperature with shaking for one hour.
The primary SYM11 antibody solution was removed by aspiration and the wells were washed three consecutive times with phosphate buffered saline containing 0.1% Tween-20 (PBST).
The secondary antibody solution was removed by aspiration and the wells were washed three consecutive times with PBST.
The SYM11 signal and the DRAQ5 signal were quantified using a Li-Cor Odyssey machine reading at […], respectively. The SYM11/DRAQ5 ratio was used to calculate the inhibition of Symmetric Dimethyl Arginine as percent of DMSO control.

[2] = target: T1, PRMT5/MEP50 complex (Homo sapiens, UniProt O14744); assay: PRMT5:MEP50 HotSpot Assay (full-length histone H2A substrate, plus and minus MTA); assay type: biochemical; details: IC50 + 2 μM MTA, in the presence of 2 μM MTA
T1 construct: purchased Reaction Biology Corporation
T1 sequence (O14744 2-637 limits assumed): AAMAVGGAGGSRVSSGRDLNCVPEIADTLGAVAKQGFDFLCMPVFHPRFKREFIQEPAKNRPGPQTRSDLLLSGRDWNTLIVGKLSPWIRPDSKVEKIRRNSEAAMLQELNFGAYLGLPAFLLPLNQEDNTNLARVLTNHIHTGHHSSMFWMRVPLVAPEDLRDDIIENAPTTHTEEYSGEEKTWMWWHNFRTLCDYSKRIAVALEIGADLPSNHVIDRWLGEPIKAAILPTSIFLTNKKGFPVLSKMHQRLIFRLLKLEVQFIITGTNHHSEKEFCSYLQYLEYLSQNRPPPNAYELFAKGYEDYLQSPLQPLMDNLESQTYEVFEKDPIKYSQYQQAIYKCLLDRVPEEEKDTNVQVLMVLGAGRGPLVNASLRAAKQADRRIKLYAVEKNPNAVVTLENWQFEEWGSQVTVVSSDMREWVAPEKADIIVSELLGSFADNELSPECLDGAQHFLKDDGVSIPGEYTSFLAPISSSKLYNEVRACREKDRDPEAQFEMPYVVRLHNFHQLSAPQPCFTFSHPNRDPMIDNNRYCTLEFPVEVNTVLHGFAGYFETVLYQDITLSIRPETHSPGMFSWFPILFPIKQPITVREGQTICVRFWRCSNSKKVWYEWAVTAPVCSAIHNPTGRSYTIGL
T1 sequence (Q9BQA1 2-342 partner limits assumed): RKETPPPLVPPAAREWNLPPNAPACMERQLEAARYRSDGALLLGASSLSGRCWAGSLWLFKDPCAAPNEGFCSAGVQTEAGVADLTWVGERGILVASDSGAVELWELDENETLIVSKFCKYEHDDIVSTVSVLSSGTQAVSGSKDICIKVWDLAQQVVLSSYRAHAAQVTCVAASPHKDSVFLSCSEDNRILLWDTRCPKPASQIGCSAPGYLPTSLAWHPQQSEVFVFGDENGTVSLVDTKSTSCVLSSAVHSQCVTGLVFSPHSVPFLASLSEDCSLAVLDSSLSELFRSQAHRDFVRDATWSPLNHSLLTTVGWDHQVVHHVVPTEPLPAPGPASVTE
How it was run: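 Radiometric HotSpot format using recombinant full-length histone H2A as substrate, run with and without MTA. Reactions were stopped and spotted onto filter paper. Tritiated H2A was quantified by scintillation counting.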

[3] = tested on: HCT116 homozygous MTAP knockout cells; assay: Proliferation assay (CellTiter-Glo, 10 days) in HCT116 homozygous MTAP knockout cells; assay type: cell-based; details: CellTiter-Glo after 10 days of treatment, read-out: Proliferation IC50 (nM) HCT116 MTAP_KO
How it was run: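 MTAP-null HCT116 clone made by CRISPR/Cas9 knockout of both alleles, tested beside parental cells. Cells dosed the day after seeding, split 1:10 on day 6 into fresh medium with the same compound level, and read on day 11 by CellTiter-Glo. IC50 taken after 10 days of exposure.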

[4] = Homo sapiens, HCT-116, 96 h, 4 days of treatment, SYM11/DRAQ5 ratio as percent of DMSO control, read-out: In-cell-Western (SYM11) IC50 (nM) HCT116 MTAP_KO
[5] = read-out: In-cell-Western (SYM11) IC50 (nM) HCT116 MTAP_KO, 4 days of treatment, SYM11/DRAQ5 ratio as percent of DMSO control
[6] = 4 days of treatment, SYM11/DRAQ5 ratio as percent of DMSO control, read-out: In-cell-Western (SYM11) IC50 (nM) HCT116 MTAP_KO

Row | IC50 [2] [nM] | IC50 [3] [nM] | SMILES | also measured
1 | 5940 |  | Cc1c(F)c(-c2c(-c3cc(C)c4c(=O)[nH]nc(CN)c4c3)cnn2C)c(C#N)c2ncc(Cl)cc12 (single isomer, unassigned) [Example 16-96, (M)-7-(4-(4-(aminomethyl)-8-methyl-1-oxo-1,2-dihydrophthalazin-6-yl)-1-methyl-1H-pyrazol-5-yl)-3-chloro-6-fluoro-5-methylquinoline-8-carbonitrile] | IC50 [1, 4]: 22 nM
2 |  |  | Cn1ncc(-c2ccc3c(=O)[nH]nc(CN)c3c2)c1-c1c(F)c(Cl)cc(OC2CC2)c1C#N [Example 16-8, 2-(4-(4-(aminomethyl)-1-oxo-1,2-dihydrophthalazin-6-yl)-1-methyl-1H-pyrazol-5-yl)-4-chloro-6-cyclopropoxy-3-fluorobenzonitrile] | IC50 [1, 5]: 0.8 nM
3 |  |  | Cn1ncc(-c2ccc3c(=O)[nH]nc(CN)c3c2)c1-c1cc2ccccn2c1C#N [Example 4-256, 2-[4-[4-(aminomethyl)-1-oxo-2H-phthalazin-6-yl]-2-methyl-pyrazol-3-yl]indolizine-3-carbonitrile] | IC50 [1, 4]: 1000 nM
4 | 257 |  | N#Cc1c(OC2CC2)cc(Cl)c(F)c1-c1c(-c2ccc3c(=O)[nH]nc(CN)c3c2)cnn1C(F)(F)F (atropisomer, axis not shown; (M)) [Example 16-120, (M)-2-(4-(4-(aminomethyl)-1-oxo-1,2-dihydrophthalazin-6-yl)-1-(trifluoromethyl)-1H-pyrazol-5-yl)-4-chloro-6-cyclopropoxy-3-fluorobenzonitrile] | IC50 [1, 6]: 79 nM
5 |  |  | Cc1ccc(-c2c(-c3ccc4c(=O)[nH]nc(CN)c4c3)cnn2C)c(C#N)c1 [Example 4-106, 2-(4-(4-(aminomethyl)-1-oxo-1,2-dihydrophthalazin-6-yl)-1-methyl-1H-pyrazol-5-yl)-5-methylbenzonitrile] | IC50 [1, 4]: 26 nM
6 |  |  | Cn1ncc(-c2ccc3c(=O)[nH]nc(CN)c3c2)c1-c1c(F)c(Cl)cc(OC2CC2)c1C#N [Example 16-7, 2-(4-(4-(aminomethyl)-1-oxo-1,2-dihydrophthalazin-6-yl)-1-methyl-1H-pyrazol-5-yl)-4-chloro-6-cyclopropoxy-3-fluorobenzonitrile] | IC50 [1, 5]: 1000 nM
7 | 76 |  | CCOc1cc(-c2cnn(C)c2-c2sc3ccccc3c2C#N)cc2c(CN)n[nH]c(=O)c12 [Example 10-24, 2-(4-(4-(aminomethyl)-8-ethoxy-1-oxo-1,2-dihydrophthalazin-6-yl)-1-methyl-1H-pyrazol-5-yl)benzo[b]thiophene-3-carbonitrile] | IC50 ([3]; Homo sapiens, HCT-116, 240 h): 166 nM
8 | 111 | 41 | CCOc1cc(-c2cnn(C)c2-c2c(F)c(C)cc(OC3CC3)c2C#N)cc2c(CN)n[nH]c(=O)c12 (single isomer, unassigned) [Example 16-76, (M)-2-[4-[4-(aminomethyl)-8-ethoxy-1-oxo-2H-phthalazin-6-yl]-2-methyl-pyrazol-3-yl]-6-(cyclopropoxy)-3-fluoro-4-methyl-benzonitrile] | 
9 | 4.61 | 15 | Cn1ncc(-c2cc(Cl)c3c(=O)[nH]nc(CN)c3c2)c1-c1c(F)c(Cl)c2ccccc2c1C#N (single isomer, unassigned) [Example 16-58, (M)-2-[4-[4-(aminomethyl)-8-chloro-1-oxo-2H-phthalazin-6-yl]-2-methyl-pyrazol-3-yl]-4-chloro-3-fluoro-naphthalene-1-carbonitrile] | 
10 | 113 | 461 | COc1cc(F)c(-c2c(-c3ccc4c(=O)[nH]nc(CN)c4c3)cnn2C)c(C#N)c1OC1CC1 (atropisomer, axis not shown; (P)) [Example 16-72, (P)-2-[4-[4-(aminomethyl)-1-oxo-2H-phthalazin-6-yl]-2-methyl-pyrazol-3-yl]-6-(cyclopropoxy)-3-fluoro-5-methoxy-benzonitrile] | 
11 | 195 | 458 | Cn1ncc(-c2ccc3c(=O)[nH]nc(CN)c3c2)c1-c1c(F)cc2ncc(Cl)cc2c1C#N (single isomer, unassigned) [Example 16-32, (P)-6-[4-[4-(aminomethyl)-1-oxo-2H-phthalazin-6-yl]-2-methyl-pyrazol-3-yl]-3-chloro-7-fluoro-quinoline-5-carbonitrile] | 
12 | 800 |  | Cc1c(F)c(-c2c(-c3cc(C)c4c(=O)[nH]nc(CN)c4c3)cnn2C)c(C#N)c2ncc(Cl)cc12 (single isomer, unassigned) [Example 16-95, (P)-7-(4-(4-(aminomethyl)-8-methyl-1-oxo-1,2-dihydrophthalazin-6-yl)-1-methyl-1H-pyrazol-5-yl)-3-chloro-6-fluoro-5-methylquinoline-8-carbonitrile] | IC50 ([3]; Homo sapiens, HCT-116, 240 h): 1230 nM
13 | 60.1 | 12 | Cn1ncc(-c2ccc3c(=O)[nH]nc(CN)c3c2)c1-c1c(F)c(Cl)c2c(c1C#N)OCCC2 (single isomer, unassigned) [Example 16-40, (M)-7-(4-(4-(aminomethyl)-1-oxo-1,2-dihydrophthalazin-6-yl)-1-methyl-1H-pyrazol-5-yl)-5-chloro-6-fluorochroman-8-carbonitrile] | 
14 | 1180 | 14 | CCOc1cc(-c2cnn(C)c2-c2c(F)c(C)c3ccccc3c2C#N)cc2c(CN)n[nH]c(=O)c12 (single isomer, unassigned) [Example 16-82, (M)-2-[4-[4-(aminomethyl)-8-ethoxy-1-oxo-2H-phthalazin-6-yl]-2-methyl-pyrazol-3-yl]-3-fluoro-4-methyl-naphthalene-1-carbonitrile] | 
15 | 26.4 | 12 | Cn1ncc(-c2cc(Cl)c3c(=O)[nH]nc(CN)c3c2)c1-c1c(F)cc2ccccc2c1C#N (single isomer, unassigned) [Example 16-12, (M)-(4-(4-(aminomethyl)-8-chloro-1-oxo-1,2-dihydrophthalazin-6-yl)-1-methyl-1H-pyrazol-5-yl)-3-fluoro-1-naphthonitrile] | 
16 | 485 | 538 | Cn1ncc(-c2ccc3c(=O)[nH]nc(CN)c3c2)c1-c1c(C#N)c(OC2CC2)c2ccccc2c1Cl (single isomer, unassigned) [Example 16-23, (P)-3-[4-[4-(aminomethyl)-1-oxo-2H-phthalazin-6-yl]-2-methyl-pyrazol-3-yl]-4-chloro-1-(cyclopropoxy)naphthalene-2-carbonitrile] | 
17 | 142 | 50 | COc1cc(F)c(-c2c(-c3ccc4c(=O)[nH]nc(CN)c4c3)cnn2C)c(C#N)c1OC1CC1 (atropisomer, axis not shown; (M)) [Example 16-71, (M)-2-[4-[4-(aminomethyl)-1-oxo-2H-phthalazin-6-yl]-2-methyl-pyrazol-3-yl]-6-(cyclopropoxy)-3-fluoro-5-methoxy-benzonitrile] | 
18 | 119 |  | Cn1ncc(-c2ccc3c(=O)[nH]nc(CN)c3c2)c1-c1sc2ncc(Cl)cc2c1C#N [Example 4-263, 2-[4-[4-(aminomethyl)-1-oxo-2H-phthalazin-6-yl]-2-methyl-pyrazol-3-yl]-5-chloro-thieno[2,3-b]pyridine-3-carbonitrile] | IC50 ([3]; Homo sapiens, HCT-116, 240 h): 132 nM
19 | 446 | 1690 | Cn1ncc(-c2ccc3c(=O)[nH]nc(CN)c3c2)c1-c1c(C#N)cc2cccnc2c1Cl (atropisomer, axis not shown; (P)) [Example 16-83, (P)-7-(4-(4-(aminomethyl)-1-oxo-1,2-dihydrophthalazin-6-yl)-1-methyl-1H-pyrazol-5-yl)-8-chloroquinoline-6-carbonitrile] | 
20 |  |  | Cn1ncc(-c2ccc3c(=O)[nH]nc(CN)c3c2)c1-c1c(F)cc2ccccc2c1C#N [Example 4-203, 2-(4-(4-(aminomethyl)-1-oxo-1,2-dibydrophthalazin-6-yl)-1-methyl-1H-pyrazol-5-yl)-3-fluoro-1-naphthonitrile] | IC50 [1, 6]: 2 nM
